# Source: patent US6331555A, “Treatment of platelet derived growth factor related disorders such as cancers” (priority 1999, dated 2001)
# How the values were obtained:
# [1] = Ex vivo conversion of A10 to B11 in human plasma
# [2] = tested on: SF763; test: Xenograft in athymic mice; format: in vivo; settings: xenografted athymic mice
# Experimental: (§1) Cell lines were grown in appropriate medium (see Appendix 1). Cells were harvested at or near confluency with 0.05% Trypsin-EDTA and pelleted at 450×g for 10 min. Pellets were resuspended in sterile PBS or media (without FBS) to a particular concentration and the cells were implanted into the hindflank of mice. Tumor growth was measured over 3 to 6 weeks using venier calipers. Tumor volumes were calculated as a product of length×width×height unless otherwise indicated. P values were calculated using the Students' t-test.
# (§2) PDGF-R expression was measured qualitatively using a western blot.
# [3] = tested on: SF767; test: Xenograft in athymic mice; format: in vivo; settings: xenografted athymic mice
# Experimental: as §1, §2
# [4] = tested on: mice implanted with C6 cells; test: Effects of A10 on mortality (mice implanted with C6 cells); format: in vivo, mouse
# Experimental: as §1
# [5] = as above; format: in vivo, mouse; settings: mouse, in vivo, ip
# Experimental: as §1
# [6] = physchem
# Excerpt: PBTE consists of a solution of 3% w/v benzyl alcohol, 8% w/v polysorbate 80, and 65% w/v polyethylene glycol (MW=300 daltons) in absolute ethanol. PBTE:D5W consists of PBTE diluted 1:1 in a solution of 5% dextrose in water. […] The solubility of the other compounds described herein can be obtained using standard techniques.
# [7] = tested on: spleen cells; test: Normal immune function in rats bearing a primary tumor; format: in vivo, rat; parameters: key to 3H-thymidine uptake: 0: no change; +/-: decrease in some drug-treated animals to levels detected in normal (non-tumor-bearing, non-drug-treated) animals; settings: 8.4 mg/kg/day
# Excerpt: At the indicated times, animals were sacrificed, and the spleens were aseptically removed and placed into sterile medium. Spleens were processed into single cell suspensions by grinding between sterile frosted glass microscope slides. After a single wash to remove tissue debris, the spleen cells were resuspended in a hypotonic ammonium chloride buffer to lyse erythrocytes. Lymphocytes were washed and resuspended to the appropriate concentrations in complete medium, consisting of RPMI plus 10% heat-inactivated FBS, 2 mM glutamine, 50 μM β-mercaptoethanol, and penicillin-streptomycin. The responses of the lymphocytes were examined in the following assays according to accepted procedures (Current Protocols in Immunology. Coligan, J. E., Kruisbeek, A. M., Margulies, D. H., Shevach, E. M., Strober, W. (eds.) John Wiley and Sons, Inc., 1992).
# The T-cell mitogen, ConA, and the T-cell independent B-cell mitogen, LPS, were added to 96-well round-bottom wells at the indicated concentrations. Lymphocytes from normal, vehicle-dosed, and drug-dosed animals were added at a final concentration of 2.5×10^5 /well. Cultures were usually set up in triplicate or quadruplicate. The plates were incubated at 37° C. in a humidified atmosphere containing 5% CO2 for the indicated times. Supernatants (approximately 100 μL) were carefully removed from the wells and stored at -80° C. for lymphokine and immunoglobulin analyses. To measure proliferation of the lymphocytes, 1 μCi of ^3 H-thymidine was added to each well, and the plates were incubated for 6 hr. The cultures were harvested onto glass fiber filters, and the incorporated radioactivity was quantitated by liquid scintillation counting (Betaplate, Wallac).
# Lymphocytes from normal, vehicle-dosed, and drug-dosed animals were plated at 2.5×10^5 /well in round-bottom 96-well plates. Stimulator cells were then added at the same cell concentration. The stimulator cells consisted of syngeneic or allogeneic lymphocytes which had been treated with 50 μg/mL of mitomycin C for 30 min prior to the assay. The plates were incubated for 3 to 4 days, at which time supernatants were harvested and the cultures were pulsed as described for the mitogen assays.
# Supernatants from mitogen and MLR cultures were assayed for IL-2 and IL-6 content by the ability to support the growth of factor-dependent cell lines. HT-2 cells (10^4 /well, IL-2-dependent) and 7TD1 cells (2×10^3 /well, IL-6-dependent) were plated in 96-well flat-bottom plates, in 50 μL/well. Supernatants were added in 50 μL/well, and the plates were incubated overnight (HT-2) or four days (7TD1). Cellular proliferation was determined in the MTT colorimetric assay (Appendix 3.1).
# Wistar rats received SC implants of C6 cells on day 0. […] The control group was not treated after tumor implantation. On day 21, the animals were sacrificed and the spleens were removed for in vitro analyses. Splenocytes were stimulated with ConA, LPS, and alloantigen (DA rat spleen cells) as in the murine studies.
# [8] = Ex vivo conversion of A10 to B11 in rat plasma
# Experimental: Plasma was prepared and frozen in liquid nitrogen. Tissues and organs were resected and immediately frozen in liquid nitrogen. After the addition of an internal standard, plasma samples were acidified with HCl and extracted with acetonitrile. The acetonitrile fraction was evaporated to dryness in a vacuum centrifuge with heating and redissolved in methanol. Tissue and organ samples were homogenized according to the weight ratio of 1:5 (w:v) in 50 mM Tris-HCl, pH 7.4, at 20,000 rev/min, using a tissue homogenizer (Brinkmann Polytron Model PT3000). After the addition of an internal standard, the homogenate was acidified with HCl and then extracted with acetonitrile. The acetonitrile fraction was then extracted with an equal volume of diethyl ether. The ether fraction was evaporated to dryness in a vacuum centrifuge with heating and redissolved in methanol.
# Samples for HPLC analysis were injected onto a Hewlett Packard Hypersil 5-μm C18 cartridge column (100×4.6 mm). The mobile phase was methanol:35 mM KH2 PO4 (pH 4.5) 55:45 containing 4 mM triethylamine. The flow rate was 1.2 mL/min. The compounds were monitored by UV absorption at 254 nm using a Hewlett-Packard diode-array detector (HP Model 1090). Plasma and tissue concentrations were determined from standard curves using peak area for quantitation. […]
smiles,measurement,setting,value
"Cc1oncc1C(=O)Nc1ccc(C(F)(F)F)cc1 [Compound A10, 5-methylisoxazole-4 carboxylic acid-(4-trifluromethyl)-anilide]",time of complete conversion to B11,"[1]; 25° C., human plasma",≤ 21 h
same,"A10 remaining, co-incubation of B11 and A10","[1]; fresh human plasma, after 21 hr",No A10 was detected after 21 hr
same,conversion to B11 in heat-inactivated plasma,"[1]; human, 15 min at 60° C.",does not occur
same,In Vivo inhibition,[2],35%
same,In Vivo inhibition,[3],18%
same,mortality,"[4]; 20 mg/kg/day (DMSO), 21 treatments, n 26",54%
same,mortality,"[4]; 20 mg/kg/day (PBTE), 20-48 treatments, n 12",8%
same,mortality rate by formulation,[4]; PBTE:D5W compared to DMSO and PBTE,"significantly reduced the mortality rate compared to DMSO formulations, and PBTE formulations"
same,mortality,"[5]; 25 mg/kg/day (PBTE:D5W), 67 treatments, n 8",0%
same,mortality,"[5]; 30 mg/kg/day (PBTE), 48 treatments, n 4",50%
same,mortality,"[5]; 40 mg/kg/day (PBTE), 48 treatments, n 4",75%
same,solubility,"[6]; pbte, organic solvent or mixture",~60 mg/mL
same,solubility,[6]; pbte:d5w,~5 mg/mL
same,solubility in water,[6]; water,not very soluble in water
same,syngeneic MLR proliferative response,[7],reduced in one of four A10-treated tumor-bearing animals
same,3H-thymidine uptake,[7]; Allo,0
same,IL-2 production,[7]; Allo,0
same,IL-6 production,[7]; Allo,0
same,3H-thymidine uptake,[7]; ConA,0
same,IL-2 production,[7]; ConA,0
same,IL-6 production,[7]; ConA,0
same,3H-thymidine uptake,[7]; LPS,0
same,IL-2 production,[7]; LPS,0
same,IL-6 production,[7]; LPS,0
same,3H-thymidine uptake,[7]; Syn,+/-
same,IL-2 production,[7]; Syn,0
same,IL-6 production,[7]; Syn,0
same,3H-thymidine uptake,[7]; Tumor stimulus,0
same,IL-2 production,[7]; Tumor stimulus,0
same,IL-6 production,[7]; Tumor stimulus,0
same,time of complete conversion to B11,"[8]; 37° C., rat plasma",≤ 2 h
same,conversion to B11 in heat-inactivated plasma,"[8]; rat, 15 min at 60° C.",does not occur
